{
  "source": "patent US9226911B2",
  "about": "“Method of reducing weight using composition containing fucoxanthin extract” (BEIJING GINGKO GROUP BIOLOGICAL TECHNOLOGY CO., LTD., priority 2009, dated 2016)",
  "key": {"[1]": {"test_system": "model rats with alimentary obesity", "experiment": "Example 4: body weight of rats with high-fat-feed alimentary obesity, 30 d intragastric administration", "type": "in vivo, SD rats", "conditions": "x ± s; for Body weight (g) (after experiment): after 30 d intragastric; for Body weight (g) (before experiment): baseline after 1 month high-fat feed, 10 rats per group", "experimental": "(§1) Test substances: Formulations are prepared according to the ratios shown in Table 4 Formulations for feeding animals: high-fat feed is composed of 80% basic feed, 10% lard and 10% yolk powder.\n(§2) Grouping and treatment of the test animals: 80 grown-up male healthy SD clean grade rats (body weight 180-210 g) are adaptively fed with basic feed for a week, 10 are used as basic feed control, the rest are fed with high-fat feed. A month later, the group of rats fed with high-fat feed is randomly grouped into 7 groups according to their weights, 10 in each group: model control, fucoxanthin (A), tocotrienols(B), fucoidan(C), composition A+B+C, composition A+B and composition A+C. The group of basic feed keeps on feeding with basic feed, the rest groups are fed with high-fat feeds. The groups of basic feed and model control are intragastrically administrated with distilled water, the rest groups are intragastrically administrated with tested medicines, all administrated for 30 d. The groups of animals are raised in different cages in rooms with the temperature conditioned at (22±2) ° C. and under natural illumination. The rats take food and water freely. Each week, their body weights are measured and the amounts of food they take are observed and recorded. They are weighted after feeding for 30 d.\n(§3) Statistical analysis: the variance from the data collected in this experiment is analyzed with SAS package, Dunnett's t test is used to compare statistically the results from different groups, the results of P<0.05 is decided as statistically significant."}, "[2]": {"test_system": "model rats with alimentary obesity", "experiment": "Example 6: fat pads around the testicles in model rats with alimentary obesity", "type": "in vivo, SD rats", "conditions": "x ± s, 30 days, A 362.5 μg, B 18.12 μg, C 9.06 mg", "experimental": "as §1, §2, §3\nThe procedure was the same as in Example 4. After feeding for 30 days and weighing, executing all the rats, the fat pads around the testicles were peeled off and weighed accurately. Statistical analysis was carried out as in Example 4."}, "[3]": {"test_system": "model rats with alimentary obesity", "experiment": "Example 5: abdomen fat in model rats with alimentary obesity", "type": "in vivo, SD rats", "conditions": "x ± s, 30 d, A 9.06 μg, B 36.25 μg, C 18.12 mg (A + B: A 36.25 μg [sic])", "experimental": "as §1, §2, §3\nThe procedure was the same as in Example 4. After feeding for 30 d and weighing, executing all the rats, the abdomen fat was peeled off and weighed accurately. Statistical analysis was carried out as in Example 4"}, "[4]": {"test_system": "model rats with alimentary obesity", "experiment": "Example 7: fat pads around the kidneys in model rats with alimentary obesity", "type": "in vivo, SD rats", "conditions": "x ± s; 30 d; A 181.23 μg, B 398.7 μg, C 1.81 mg", "experimental": "as §1, §2, §3\nThe procedure was the same as in Example 4. After feeding for 30 d and weighing, executing all the rats, the fat pads around the kidneys were taken out and weighed accurately. Statistical analysis was carried out as in Example 4."}, "test subjects": {"test_system": "test subjects", "experiment": "Example 8: clinic intake trial, body weight and abdomen fat areas by CT", "type": "in vivo, human", "from_the_text": "To examine the weight reducing effect of fucoxanthin composition by means of random control method, 20 eligible test subjects of the age of 20 to 50 were divided into 5 groups, A+B+C, A+C, A+B, A, B+C, with random figure table method. The number of the subjects in each group was n=4. The daily doses of the medicines taken by the subjects were according to Table 12. Apart from being administrated with each of the different tested medicines at the breakfast time according to the set way of taking the medicine, other normal life style and dietetic habit of the subjects were not changed. No low-calorie food recipe was required, no restriction to the food and drink was executed and no extra physical training was carried out. To examining the effect of sampling of the medicine, the subjects were respectively examined before sampling of the medicine and 1 month, 2 and 3 months after the sampling. That is, the bodyweight, waist- and hiplines, blood sugar and blood fat were measured, abdomen CT scanning was carried out and so on. The subjects were periodically followed-up to find out the experiences and to supervise and guarantee compliance of the customers in taking the medicine. For the test, those suffered from serious metabolic diseases that need medicinal control and those taken other weight reducing products had been excluded.\nAbdomen fat areas were measured with CT • Instrument: CT Model Pronto; Hitachi, Japan. • 120 kV, 175 mA • Layer thickness of the scanning: 10 mm • Scanning in the umbilical cross-section • Attenuation of the adipose tissue: −250˜−50 HU (CT Unit) • Calculation of the fat areas: total abdomen fat, visceral- and subcutaneous fat (mm^2)\nUsing CT Scanning, total fat—as well as visceral fat areas were marked out across the umbilical cross-section, the areas were measured respectively, the area of subcutaneous fat was obtained as the difference of both areas."}, "[5]": {"conditions": "per rat A 36.25 μg, B 36.25 μg, C 0.4 mg"}, "[6]": {"conditions": "over 30 d intragastric, per rat A 36.25 μg, B 36.25 μg, C 0.4 mg"}, "[7]": {"conditions": "n = 4, after vs before, daily dose A 2 mg, B 2 mg, C 22 mg"}, "[8]": {"conditions": "x ± s, n = 4, CT, oral daily dose A 2 mg, B 2 mg, C 22 mg"}},
  "note": "Marks after values point to notes of the source that are not given here.",
  "data": [
    {"substance": "fucoidan", "values": [
      {"measurement": "Body weight (g) (after experiment)", "setting": "[1]; [5]", "result": "546.59 ± 18.64", "unit": "g"},
      {"measurement": "Body weight (g) (before experiment)", "setting": "[1]", "result": "486.69 ± 21.12", "unit": "g"},
      {"measurement": "Weight increased", "setting": "[1]; [6]", "result": "59.90 ± 18.11", "unit": "g"},
      {"measurement": "Body weight (g) (after experiments)", "setting": "[2]", "result": "546.59 ± 18.64", "unit": "g"},
      {"measurement": "Fat pad weight around the testicles", "setting": "[2]", "result": "9.11 ± 0.48", "unit": "g"},
      {"measurement": "Fat pad weight around the testicles/body weight", "setting": "[2]; in % (unit assumed)", "result": "1.67 ± 0.13"},
      {"measurement": "Abdomen fat", "setting": "[3]", "result": "12.99 ± 1.23", "unit": "g"},
      {"measurement": "Body weight (g) (after experiment)", "setting": "[3]", "result": "546.59 ± 18.64", "unit": "g"},
      {"measurement": "Weight of abdomen fat/body weight", "setting": "[3]; in % (unit assumed)", "result": "2.38 ± 0.13"},
      {"measurement": "Body weight (g) (after experiments)", "setting": "[4]", "result": "546.59 ± 18.64", "unit": "g"},
      {"measurement": "Total weight of fat pads around the kidneys", "setting": "[4]", "result": "9.29 ± 0.61", "unit": "g"},
      {"measurement": "Total weight of fat pads around the kidneys/body weight", "setting": "[4]", "result": "1.70 ± 0.13"}
    ]},
    {"substance": "fucoxanthin", "values": [
      {"measurement": "Body weight (g) (after experiment)", "setting": "[1]; [5]", "result": "530.18 ± 20.32Δ g"},
      {"measurement": "Body weight (g) (before experiment)", "setting": "[1]", "result": "486.50 ± 22.10", "unit": "g"},
      {"measurement": "Weight increased(g)", "setting": "[1]; [6]", "result": "43.68 ± 19.13Δ g"},
      {"measurement": "Body weight (g) (after experiments)", "setting": "[2]", "result": "530.18 ± 20.32", "unit": "g"},
      {"measurement": "Fat pad weight around the testicles (g)", "setting": "[2]", "result": "7.32 ± 0.83Δ g"},
      {"measurement": "Fat pad weight around the testicles/body weight", "setting": "[2]", "result": "1.38 ± 0.11Δ"},
      {"measurement": "Abdomen fat (g)", "setting": "[3]", "result": "9.58 ± 1.99Δ g"},
      {"measurement": "Body weight (g) (after experiment)", "setting": "[3]", "result": "530.18 ± 20.32", "unit": "g"},
      {"measurement": "Weight of abdomen fat/body weight", "setting": "[3]", "result": "1.81 ± 0.13Δ"},
      {"measurement": "Body weight (g) (after experiments)", "setting": "[4]", "result": "530.18 ± 20.32", "unit": "g"},
      {"measurement": "Total weight of fat pads around the kidneys (g)", "setting": "[4]", "result": "7.42 ± 0.60Δ g"},
      {"measurement": "Total weight of fat pads around the kidneys/body weight", "setting": "[4]", "result": "1.42 ± 0.12Δ"},
      {"measurement": "effects compared with B+C group", "setting": "test subjects; clinic trial, P<0.05", "result": "more significant than B+C group"},
      {"measurement": "The area of subcutaneous fat, Decrease (%)", "setting": "test subjects; [7]", "result": 6.10, "unit": "%"},
      {"measurement": "The area of visceral fat, Decrease (%)", "setting": "test subjects; [7]", "result": 4.20, "unit": "%"},
      {"measurement": "Total abdomen fat area, decrease", "setting": "test subjects; [7]", "result": 5.68, "unit": "%"},
      {"measurement": "Body weight Change: decrease by", "setting": "test subjects; n = 4, oral daily dose A 2 mg, B 2 mg, C 22 mg, after vs before", "result": "by 1.5%"},
      {"measurement": "The area of subcutaneous fat, Before clinic experiment", "setting": "test subjects; x ± s, n = 4, CT, difference of total and visceral fat areas, baseline", "result": "15514 ± 1192", "unit": "mm^2"},
      {"measurement": "The area of subcutaneous fat, After clinic experiment", "setting": "test subjects; x ± s, n = 4, CT, difference of total and visceral fat areas, daily dose A 2 mg, B 2 mg, C 22 mg", "result": "14568 ± 1225* mm^2"},
      {"measurement": "Total abdomen fat area, Before clinic experiment", "setting": "test subjects; x ± s, n = 4, CT, umbilical cross-section, baseline", "result": "36555 ± 1645", "unit": "mm^2"},
      {"measurement": "The area of visceral fat, Before clinic experiment", "setting": "test subjects; x ± s, n = 4, CT, baseline", "result": "17380 ± 1185", "unit": "mm^2"},
      {"measurement": "The area of visceral fat, After clinic experiment", "setting": "test subjects; [8]", "result": "16650 ± 1484* mm^2"},
      {"measurement": "Total abdomen fat area, After clinic experiment", "setting": "test subjects; [8]", "result": "34479 ± 1475", "unit": "mm^2"},
      {"measurement": "Body weight, Before clinic experiment", "setting": "test subjects; x ± s, n = 4, baseline", "result": "68.4 ± 0.13", "unit": "kg"},
      {"measurement": "Body weight, After clinic experiment", "setting": "test subjects; x ± s, n = 4, oral daily dose A 2 mg, B 2 mg, C 22 mg", "result": "67.37 ± 0.11", "unit": "kg"}
    ]}
  ]
}
